“And” between values parts separate entries of the source, which are not always exact repeats. Equal entries are not always repeated.
Columns and labels:
[1] = test system: human liver cancer cell HepG2; assay: In vitro activity assay, growth of HepG2 (thymidine incorporation); type: cell-based; conditions: 48 h
Excerpt: (§1) The anti-tumor activity and toxicity of the compounds according to the present invention can be assayed through standard operational procedures of pharmacological experiment. The experiments carried out herein can test the inhibitory effect of the compounds according to the present invention on the growth of human liver cancer cell HepG2, lung cancer cell NCI460, prostate cancer cell DU145, prostate cancer cell PC3, and human breast cancer cell MDA-MB-435. The operational procedure used is briefly described below by taking the inhibitory activity assay against human liver cancer cell HepG2 as an example.
Human liver cancer cell HepG2 grew in the follow medium:
Preparation of the growth medium: BRL minimum essential medium with Earle Salts (500 mL), with the addition of the following agents:
(§2) The operational procedure for the assay is as follows:
(§3) 1. Cells after being trypsinized were inoculated in 96-well plates at a concentration of 10^4 cells/well, and allowed to grow in a medium with a final volume of 200 μL. The 96-well plates after inoculation are allowed to stand for 24 hours at 37° C., in order to allow the cells to adhere to the surface of the wells.
(§4) 2. The medium was removed by carefully pipetting without disturbing the cell monolayer. 200 μL Fresh medium was added into each well. It is arranged to make it possible to collect samples from enough wells to run the experiments in triplicate.
(§5) 3. The compounds to be tested according to the present invention were dissolved into 10 μL phosphate buffered solution (PBS) and incubated for 48 h at 37° C.
(§6) 4. In the last 6 h of incubation, cells in each well of the 96-well plates were labeled by 1 microcurie T thymidine (New England Nuclear thymidine), by adding 10 μL PBS containing 1 microcurie T thymidine (which was added into the PBS on the day of collecting the samples for test). The 96-well plates were then returned to the incubator and incubated for the last 6 h.
(§7) 5. Without disturbing the cell monolayer, the radioactive medium was removed by pipetting. Then 50 μL of BRL 10×trypsin was added to each well, followed by incubation at 37° C. for 10 minutes or until the cell monolayer was detached from the bottom (or the wall) of each well. Samples were collected on glass-fiber diskettes using a Skatron 96-well cell harvester. Cells depositing on the glass-fiber diskettes were counted in a Wallac Betaplate counter.

lung cancer cell NCI460 = assay: In vitro activity assay, growth of NCI460; type: cell-based; conditions: NCI-460, 48 h
Excerpt: as §1, §2, §3, §4, §5, §6, §7

[2] = test system: prostate cancer cell DU145; assay: In vitro activity assay, growth of DU145; type: cell-based; conditions: Homo sapiens; DU-145; 48 h
Excerpt: as §1, §2, §3, §4, §5, §6, §7

prostate cancer cell PC3 = assay: In vitro activity assay, growth of PC3; type: cell-based; conditions: 48 h
Excerpt: as §1, §2, §3, §4, §5, §6, §7

[3] = test system: human breast cancer cell MDA-MB-435; assay: In vitro activity assay, growth of MDA-MB-435; type: cell-based; conditions: 48 h
Excerpt: as §1, §2, §3, §4, §5, §6, §7

[4] = test system: human lung cancer cell NCI-H460; assay: In vivo inhibitory activity against NCI-H460 tumor in nude mice; conditions: everolimus 5 mg/kg, compound I-1 6.8 mg/kg, qw 4×
DU145 = assay: In vivo tumor inhibitory efficacy against DU145 tumor in nude mice, intragastrical vs injection; conditions: G1 everolimus 5 mg/kg intragastrical, 3×/w, 4 w
Protocol: (§8) DU145 (the 3rd generation) tumors in the rapid proliferation stage inoculated in the axilla of nude mice were cut into tumor lumps with a size of 1 mm*1 mm*1 mm and then were inoculated subcutaneously to the right limb of nude mice using a trocar under a sterile condition. When the tumors grow to 150-200 mm^3, the mice were randomly divided into three groups and then administrated with the compounds for 4 weeks. The major diameter (a) and the minor diameter (b) of the tumors were measured 2 or 3 times a week. The tumor volume (TV) was calculated with the following equation: TV=½×a×b^2. Tumors were stripped and weighted at Day 28 and the tumor inhibition rate was calculated using the following equation: (tumor weight of control−tumor weight of experimental group)/tumor weight of control×100%.
(§9) The nude mice were divided into 3 groups with 4 mice per group when the tumors averagely grew to about 185-200 mm^3, depending on the growth regularity of the tumor and the dosage regimen.

[5] = test system: human renal cell carcinoma OS-RC-2; assay: In vivo inhibitory activity against human renal cell carcinoma OS-RC-2 in nude mice
Protocol: The tumor inhibition rate was calculated.

[6] = Body weight of DU145 tumor nude mice; conditions: G1 everolimus 5 mg/kg intragastrical, 3×/w, 4 w;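 further: dosing started once xenografts reached 150-200 mm^3, with mice randomized into three groups, loss of body weight served as an indirect sign of drug toxicity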
Protocol: as §8, §9
G1: positive drug group: Everolimus (5 mg/kg, qw, 4 w, 3×/w); administration route: intragastrical administration;

[7] = Body weight of NCI-H460 tumor nude mice; conditions: everolimus 5 mg/kg, compound I-1 6.8 mg/kg, qw 4×;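 further: Tumor-bearing mice dosed for 4 weeks once tumors reached 150–200 mm^3, with a vehicle control group, and body weight loss taken as an indirect sign of drug toxicity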
Protocol: NCI-H460 (the 3rd generation) tumors in the rapid proliferation stage inoculated in the axilla of nude mice were cut into tumor lumps with a size of 1 mm*1 mm*1 mm and then were inoculated subcutaneously to the right limb of nude mice using a trocar under a sterile condition. When the tumors grew to 150˜200 mm^3, the mice were divided into groups and then administrated with the compounds for 4 weeks. The major diameter (a) and the minor diameter (b) of the tumors were measured two or three times a week. The tumor volume (TV) and the relative tumor proliferation rate (T/C) were calculated. The equation for calculating the tumor volume is: TV=½×a×b^2. The equation for calculating the relative tumor proliferation rate is T/C=TRTC/CRTV (TRTC: average relative tumor volume in the treatment group; CRTV: average relative tumor volume in the vehicle control group). Tumors were stripped and weighted at Day 28 and the tumor-inhibition rate was calculated with the following equation: (tumor weight of control−tumor weight of experimental group)/tumor weight of control×100%.
Grouping method: the mice were divided into 3 groups with 6 mice per group when the tumors averagely grew to about 195 mm^3, depending on the growth regularity of the tumor and the dosage regimen. Administration route: intragastrical administration.
G1: Control (vehicle, qw 4×, iv)
G2: Positive drug group: Everolimus (5 mg/kg, qw 4×, iv)

CO[C@H]1C[C@@H]2CC[C@@H](C)[C@@](O)(O2)C(=O)C(=O)N2CCCC[C@H]2C(=O)O[C@H]([C@H](C)C[C@@H]2CC[C@@H](OCCO)[C@H](OC)C2)CC(=O)[C@H](C)/C=C(\C)[C@@H](O)[C@@H](OC)C(=O)[C@H](C)C[C@H](C)/C=C/C=C/C=C/1C [Everolimus, reference compound]
IC50 [1]: 52.29 ± 0.006 µM
IC50 (lung cancer cell NCI460): 99.811 ± 0.004 µM
IC50 [2]: 57.327 ± 0.005 µM
IC50 (prostate cancer cell PC3): 30.27 ± 0.006 µM
IC50 [3]: 62.57 ± 0.003 µM
Mean Volume of Tumor ([4]; Day 0): 194.8659 mm^3
Mean Volume of Tumor ([4]; Day 3): 264.7517 mm^3
TRTV (average relative tumor volume in the treatment group) ([4]; Day 3): 1.3586
Mean Volume of Tumor ([4]; Day 7): 356.6133 mm^3
TRTV (average relative tumor volume in the treatment group) ([4]; Day 7): 1.8300
Mean Volume of Tumor ([4]; Day 10): 457.1105 mm^3
TRTV (average relative tumor volume in the treatment group) ([4]; Day 10): 2.3458
Mean Volume of Tumor ([4]; Day 14): 626.5192 mm^3
TRTV (average relative tumor volume in the treatment group) ([4]; Day 14): 3.2151
Mean Volume of Tumor ([4]; Day 17): 730.3766 mm^3
TRTV (average relative tumor volume in the treatment group) ([4]; Day 17): 3.7481
Mean Volume of Tumor ([4]; Day 21): 1386.2102 mm^3
TRTV (average relative tumor volume in the treatment group) ([4]; Day 21): 6.6005
Mean Volume of Tumor ([4]; Day 24): 1593.5901 mm^3
TRTV (average relative tumor volume in the treatment group) ([4]; Day 24): 7.1515
Tumor Inhibition Rate ([4]; Day 28, by tumor weight): 56% and 56.01%
Mean Volume of Tumor ([4]; Day 28): 1955.7073 mm^3
TRTV (average relative tumor volume in the treatment group) ([4]; Day 28): 9.5230
Tumor Weight ± SD ([4]; Day 28): 1.1741 ± 0.3687 g
Mean Volume of Tumor (DU145; Day 0): 198.71 mm^3
Mean Volume of Tumor (DU145; Day 3): 216.57 mm^3
Mean Volume of Tumor (DU145; Day 7): 208.07 mm^3
Mean Volume of Tumor (DU145; Day 10): 215.24 mm^3
Mean Volume of Tumor (DU145; Day 14): 236.94 mm^3
Mean Volume of Tumor (DU145; Day 17): 268.62 mm^3
Mean Volume of Tumor (DU145; Day 21): 298.50 mm^3
Mean Volume of Tumor (DU145; Day 24): 289.57 mm^3
Mean Volume of Tumor (DU145; Day 28): 302.22 mm^3
Tumor Inhibition Rate ([5]; G2 everolimus 2 mg/kg ig 3×/qw): 35.6%
Tumor Inhibition Rate ([5]; G3 everolimus 6 mg/kg ig 3×/qw): 41.1%
Tumor Weight ± SD ([5]; end of experiment, G3 everolimus 6 mg/kg ig 3×/qw): 0.4093 ± 0.3863 g
Body Weight, mean value ([6]; Day 0): 24.36 g
Body Weight, mean value ([6]; Day 3): 24.68 g
Decrease rate (body weight) ([6]; Day 3): −1.32%
Decrease in body weight ([6]; Day 3 vs Day 0): -0.32 g
Body Weight, mean value ([6]; Day 7): 24.99 g
Decrease rate (body weight) ([6]; Day 7): −2.59%
Decrease in body weight ([6]; Day 7 vs Day 0): -0.63 g
Body Weight, mean value ([6]; Day 10): 24.93 g
Decrease rate (body weight) ([6]; Day 10): −2.32%
Decrease in body weight ([6]; Day 10 vs Day 0): -0.57 g
Body Weight, mean value ([6]; Day 14): 24.94 g
Decrease rate (body weight) ([6]; Day 14): −2.38%
Decrease in body weight ([6]; Day 14 vs Day 0): -0.58 g
Body Weight, mean value ([6]; Day 17): 25.88 g
Decrease rate (body weight) ([6]; Day 17): −6.24%
Decrease in body weight ([6]; Day 17 vs Day 0): -1.52 g
Body Weight, mean value ([6]; Day 21): 25.27 g
Decrease rate (body weight) ([6]; Day 21): −3.75%
Decrease in body weight ([6]; Day 21 vs Day 0): -0.91 g
Body Weight, mean value ([6]; Day 24): 25.33 g
Decrease rate (body weight) ([6]; Day 24): −3.96%
Decrease in body weight ([6]; Day 24 vs Day 0): -0.97 g
Body Weight, mean value ([6]; Day 28): 25.31 g
Decrease rate (body weight) ([6]; Day 28): −3.90%
Decrease in body weight ([6]; Day 28 vs Day 0): -0.95 g
Body Weights, mean value ([7]; Day 0): 24.50 g
Body Weights, mean value ([7]; Day 3): 24.38 g
Decrease rate (body weight) ([7]; Day 3): 0.51%
Decrease in body weight ([7]; Day 3 vs Day 0): 0.13 g
Body Weights, mean value ([7]; Day 7): 25.44 g
Decrease rate (body weight) ([7]; Day 7): −3.82%
Decrease in body weight ([7]; Day 7 vs Day 0): -0.94 g
Body Weights, mean value ([7]; Day 10): 24.50 g
Decrease rate (body weight) ([7]; Day 10): 0.00%
Decrease in body weight ([7]; Day 10 vs Day 0): 0.00 g
Body Weights, mean value ([7]; Day 14): 25.68 g
Decrease rate (body weight) ([7]; Day 14): −4.83%
Decrease in body weight ([7]; Day 14 vs Day 0): -1.18 g
Body Weights, mean value ([7]; Day 17): 25.39 g
Decrease rate (body weight) ([7]; Day 17): −3.63%
Decrease in body weight ([7]; Day 17 vs Day 0): -0.89 g
Body Weights, mean value ([7]; Day 21): 26.13 g
Decrease rate (body weight) ([7]; Day 21): −6.65%
Decrease in body weight ([7]; Day 21 vs Day 0): -1.63 g
Body Weights, mean value ([7]; Day 24): 25.09 g
Decrease rate (body weight) ([7]; Day 24): −2.41%
Decrease in body weight ([7]; Day 24 vs Day 0): -0.59 g
Body Weights, mean value ([7]; Day 28): 26.14 g
Decrease rate (body weight) ([7]; Day 28): −6.67%
Decrease in body weight ([7]; Day 28 vs Day 0): -1.64 g
